This is an account of results in US8816095B2, “Na channels, disease, and related assays and compositions” (Georgetown University, priority 2008, dated 2014).

SMILES strings stand for the structures. A value given as a limit tells only on which side of the number the result lay.

One assay has as its target T1, hNav1.5 (Homo sapiens, UniProt Q14524).
T1 construct: expressed in transfected cells; host or cells: HEK293
Description: Fluorescent (FRET) based sodium channel assay, hNav1.5. As to conditions: HEK293 stably transfected with hNav1.5, 10 μM veratridine, read-out: hNav 1.5 IC50. The assay is classed as cell-based. How it is done: (§1) Two isoforms of the channel were examined: hNav1.5, a cardiac sodium channel associated with arrhythmias, and hNav1.7, an isoform found in the peripheral nervous system.
HEK293 cells stably transfected with either hNav1.5 or hNav1.7 were plated at approximately 11,000-20,000 cells/well in flat bottom, poly-D-lysine coated black-wall, clear-bottom, 384-well plates (Becton Dickinson, Bedford, Mass.), and incubated overnight at 37° C. in a 10% CO2 atmosphere in growth medium. Cells were washed with 0.03 mL of Dulbecco's phosphate buffered saline (D-PBS) containing calcium and magnesium. Cells were then incubated with 0.025 mL of a solution containing 10 μM CC2-DMPE and 0.02% pluronic acid in D-PBS with calcium and magnesium; supplemented with 10 mM glucose, and 10 mM Hepes-NaOH, pH 7.4. […] At the end of the incubation period, the plate was placed in a FLIPR TETRA instrument (MDS Analytical Technologies, Sunnyvale Calif.), illuminated at 390-420 nm, and fluorescence emissions were recorded at approximately 1 Hz at 460 and 580 nm. Following a 7 second baseline reading, 0.025 mL of VIPR-S containing 10 μM veratridine for Nav1.5 or 20 μM veratridine for Nav1.7 was added to each well, and the emissions of both dyes were recorded for an additional 33 seconds. […]

Assay [1] relates to PC-3 cells. Description: PC-3 cell growth inhibition assay (WST-8). The assay is classed as cell-based. As to conditions: Homo sapiens, WST-8, 48 hours. How it is done:
The effect of compound 2 was studied on the proliferation of human androgen independent prostate cancer (PC-3) cells, using a cell viability assay with WST-8. […].
PC-3 cells were added to the wells of a 96 well plate at 7500 cells per well in 100 uL of RPMI medium with 10% serum and allowed to plate down overnight. The medium was then removed and replaced with serum free medium containing the appropriate concentration of drug. DMSO concentration was kept below 1%. At this time WST-8 cell counting reagent was added to the control (T=0) wells and allowed to incubate for 2 hours and the absorbance was read at 450 nm to determine the starting number of cells per well. The plates were incubated for 48 hours, the medium was removed and the wells were washed with 100 uL of PBS. The PBS was removed that the wells were filled with 110 uL of serum free RPMI media containing the WST-8 reagent. After two hours of incubation, the plates absorbance was read at 450 nm and normalized to the control value.
In general terms: Formazan colour is commonly taken as a measure of viable cells.

Assay [2] relates to Na+ channel site 2 binding site. Kind of assay: [3H]-BTX assay, rat forebrain membranes. The conditions noted are these: ± S.E.M., n in brackets. The procedure: In order to determine if the hermitamides bind to the sodium channel, the natural products, their enantiomers, and the racemic mixture were tested for their ability to displace [^3H]-batrachatoxin. Batrachatoxin is a lipid-soluble neurotoxin that binds to site 2 of the sodium channel. This site is known to overlap with the local anesthetic binding […]. Ligands known to bind to […] of the sodium channel include anesthetics, anticonvulsants and antiarrthymics. As a control, phenyloin, a clinically-used sodium channel blocker that is known to displace [^3H]BTX was also included.
The assays were run at 10 μM and recorded as percent displacement of BTX.
Briefly, rat forebrain membranes (10 mg tissue/well) were incubated with [^3H]-BTX (30-60 Ci/mmol). […] The reaction was terminated by rapid vacuum filtration of the reaction contents onto glass fiber filters. Radioactivity trapped onto the filters was determined and compared with control values to ascertain any interactions of the test compound with the Na^+ channel site 2 binding site. Aconitine (1 μM) was used as a positive control (Sigma Aldrich, Inc., St. Louis, Mo.).

The test system of another assay is site 2 of the VGSC. Description: [3H]-BTX-B displacement assay at site 2. The assay is classed as binding, rat.
The nature of assay [3]: Incidence of prostate cancer in epileptic men treated with sodium channel blockers. On the set-up: species or system human. The conditions noted are these: 1427 epileptic men given drug vs 14270 control, 1994 to 2003. From the text: The incidence of prostate cancer in epileptic men treated with sodium channel blockers was studied from 1994 to 2003. In the study, 1427 epileptic men were given phenyloin as a sodium channel blocker while 14270 epileptic men were not given a sodium channel blocker (control).

A further assay has as its system neuronal VGSCs. As to conditions: read-out: inactivated state-dependent blocking activity IC50 in neuronal VGSCs; cited from earlier work.
Assay [4] concerns PC-3 cells. Description: PC-3 MTT cell viability assay. The assay is classed as cell-based. The conditions noted are these: Homo sapiens, read-out: GI50 ± SEM (10 μM), DPH and JDA-3-135 previously determined. The text has this:
Following the determination that compound CDPNS inhibits the VGSCs that are present in androgen independent PC-3 cells, a 3-(4,5-Dimethylthiazol-2-yl)-2,5-diphenyltetrazolium bromide (MTT) cell viability assay was utilized to measure the ability of compound CDPNS to inhibit PC-3 cell growth via VGSC blockade. In this experiment data yielded from CDPNS was compared to previously determined DPH and JDA-3-135 antiproliferation data (Table 10).

The next assay concerns the target T2, hNav1.7 (Homo sapiens, UniProt Q15858).
T2 construct: expressed in transfected cells; host or cells: HEK293
Kind of assay: Fluorescent (FRET) based sodium channel assay, hNav1.7. The assay is classed as cell-based. As to conditions: HEK293 stably transfected with hNav1.7, 20 μM veratridine, read-out: hNav 1.7 IC50. The procedure: as §1
HEK293 cells stably transfected with either hNav1.5 or hNav1.7 were plated at approximately 11,000-20,000 cells/well in flat bottom, poly-D-lysine coated black-wall, clear-bottom, 384-well plates (Becton Dickinson, Bedford, Mass.), and incubated overnight at 37° C. in a 10% CO2 atmosphere in growth medium. Cells were washed with 0.03 mL of Dulbecco's phosphate buffered saline (D-PBS) containing calcium and magnesium. Cells were then incubated with 0.025 mL of a solution containing 10 μM CC2-DMPE and 0.02% pluronic acid in D-PBS with calcium and magnesium; supplemented with 10 mM glucose, and 10 mM Hepes-NaOH, pH 7.4. […] Afterwards, cells were incubated in the dark at 25° C. for 45 min with 0.025 mL of a solution containing 5 μM DiSBAC2(3) in VIPR-S, in the absence or presence of test compound. At the end of the incubation period, the plate was placed in a FLIPR TETRA instrument (MDS Analytical Technologies, Sunnyvale Calif.), illuminated at 390-420 nm, and fluorescence emissions were recorded at approximately 1 Hz at 460 and 580 nm. Following a 7 second baseline reading, 0.025 mL of VIPR-S containing 10 μM veratridine for Nav1.5 or 20 μM veratridine for Nav1.7 was added to each well, and the emissions of both dyes were recorded for an additional 33 seconds. The change in fluorescence resonance energy transfer (FRET) ratio (F/F0) was calculated as: F/F0=((A460/A580/(I460/I580) where A and I represent the readings after or before addition of veratridine, respectively, at the indicated wavelengths. For I, the readings from 2-5 seconds were averaged, and for A, readings from 3 seconds after the signal had reached a plateau level (usually within 30-40 s) were also averaged. Triplicate measurements were performed for each experimental condition and the data were averaged.

T2 sequence (Q15858 whole entry): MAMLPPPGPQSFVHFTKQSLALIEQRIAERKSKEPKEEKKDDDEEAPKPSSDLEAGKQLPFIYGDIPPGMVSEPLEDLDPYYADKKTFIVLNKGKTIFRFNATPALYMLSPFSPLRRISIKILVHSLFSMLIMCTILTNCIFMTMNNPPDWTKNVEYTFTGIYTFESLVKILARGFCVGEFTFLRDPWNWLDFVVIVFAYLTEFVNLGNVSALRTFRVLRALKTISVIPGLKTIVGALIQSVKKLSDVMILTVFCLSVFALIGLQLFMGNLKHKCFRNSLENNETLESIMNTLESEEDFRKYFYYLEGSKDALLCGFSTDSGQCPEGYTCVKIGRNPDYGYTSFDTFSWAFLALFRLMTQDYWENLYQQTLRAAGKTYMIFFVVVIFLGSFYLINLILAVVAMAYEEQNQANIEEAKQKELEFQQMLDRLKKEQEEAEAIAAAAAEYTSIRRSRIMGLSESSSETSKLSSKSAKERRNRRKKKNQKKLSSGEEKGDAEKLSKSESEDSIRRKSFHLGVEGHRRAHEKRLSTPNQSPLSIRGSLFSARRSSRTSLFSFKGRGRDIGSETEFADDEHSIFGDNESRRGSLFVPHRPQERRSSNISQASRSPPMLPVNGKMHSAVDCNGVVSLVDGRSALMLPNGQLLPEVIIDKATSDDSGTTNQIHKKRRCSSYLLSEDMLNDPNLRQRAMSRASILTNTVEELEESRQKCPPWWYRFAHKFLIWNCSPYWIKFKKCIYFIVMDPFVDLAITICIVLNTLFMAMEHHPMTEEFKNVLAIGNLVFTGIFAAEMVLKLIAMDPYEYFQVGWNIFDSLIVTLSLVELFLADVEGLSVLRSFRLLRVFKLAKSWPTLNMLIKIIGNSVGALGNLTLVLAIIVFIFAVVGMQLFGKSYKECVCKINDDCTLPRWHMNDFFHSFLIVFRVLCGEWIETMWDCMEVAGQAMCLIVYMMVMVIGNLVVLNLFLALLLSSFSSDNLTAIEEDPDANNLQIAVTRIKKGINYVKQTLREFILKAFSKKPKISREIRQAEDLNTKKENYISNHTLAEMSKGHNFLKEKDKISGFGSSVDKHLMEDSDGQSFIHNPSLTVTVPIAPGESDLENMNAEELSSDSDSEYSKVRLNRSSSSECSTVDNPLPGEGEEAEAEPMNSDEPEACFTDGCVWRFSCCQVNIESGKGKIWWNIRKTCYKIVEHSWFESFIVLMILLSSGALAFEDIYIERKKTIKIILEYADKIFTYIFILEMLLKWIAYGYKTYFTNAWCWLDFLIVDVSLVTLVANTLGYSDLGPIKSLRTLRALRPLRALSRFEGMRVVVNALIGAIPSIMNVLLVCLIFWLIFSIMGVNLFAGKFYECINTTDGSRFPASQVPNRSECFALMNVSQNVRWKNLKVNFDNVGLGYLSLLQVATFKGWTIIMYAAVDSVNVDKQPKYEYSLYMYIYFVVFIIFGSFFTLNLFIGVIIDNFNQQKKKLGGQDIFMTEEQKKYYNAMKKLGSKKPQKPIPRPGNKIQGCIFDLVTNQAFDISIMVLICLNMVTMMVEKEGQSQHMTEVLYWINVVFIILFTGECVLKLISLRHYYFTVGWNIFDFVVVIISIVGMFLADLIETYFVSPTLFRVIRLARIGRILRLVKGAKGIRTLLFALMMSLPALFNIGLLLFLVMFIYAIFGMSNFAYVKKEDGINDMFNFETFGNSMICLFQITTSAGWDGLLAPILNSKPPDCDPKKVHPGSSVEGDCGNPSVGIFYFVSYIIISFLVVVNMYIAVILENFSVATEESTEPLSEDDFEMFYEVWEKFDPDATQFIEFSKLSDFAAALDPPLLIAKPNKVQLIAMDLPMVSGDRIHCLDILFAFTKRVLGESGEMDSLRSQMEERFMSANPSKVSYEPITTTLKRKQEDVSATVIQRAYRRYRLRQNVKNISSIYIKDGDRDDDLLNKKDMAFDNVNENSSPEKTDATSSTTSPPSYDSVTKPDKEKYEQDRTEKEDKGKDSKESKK
T1 sequence (Q14524 whole entry): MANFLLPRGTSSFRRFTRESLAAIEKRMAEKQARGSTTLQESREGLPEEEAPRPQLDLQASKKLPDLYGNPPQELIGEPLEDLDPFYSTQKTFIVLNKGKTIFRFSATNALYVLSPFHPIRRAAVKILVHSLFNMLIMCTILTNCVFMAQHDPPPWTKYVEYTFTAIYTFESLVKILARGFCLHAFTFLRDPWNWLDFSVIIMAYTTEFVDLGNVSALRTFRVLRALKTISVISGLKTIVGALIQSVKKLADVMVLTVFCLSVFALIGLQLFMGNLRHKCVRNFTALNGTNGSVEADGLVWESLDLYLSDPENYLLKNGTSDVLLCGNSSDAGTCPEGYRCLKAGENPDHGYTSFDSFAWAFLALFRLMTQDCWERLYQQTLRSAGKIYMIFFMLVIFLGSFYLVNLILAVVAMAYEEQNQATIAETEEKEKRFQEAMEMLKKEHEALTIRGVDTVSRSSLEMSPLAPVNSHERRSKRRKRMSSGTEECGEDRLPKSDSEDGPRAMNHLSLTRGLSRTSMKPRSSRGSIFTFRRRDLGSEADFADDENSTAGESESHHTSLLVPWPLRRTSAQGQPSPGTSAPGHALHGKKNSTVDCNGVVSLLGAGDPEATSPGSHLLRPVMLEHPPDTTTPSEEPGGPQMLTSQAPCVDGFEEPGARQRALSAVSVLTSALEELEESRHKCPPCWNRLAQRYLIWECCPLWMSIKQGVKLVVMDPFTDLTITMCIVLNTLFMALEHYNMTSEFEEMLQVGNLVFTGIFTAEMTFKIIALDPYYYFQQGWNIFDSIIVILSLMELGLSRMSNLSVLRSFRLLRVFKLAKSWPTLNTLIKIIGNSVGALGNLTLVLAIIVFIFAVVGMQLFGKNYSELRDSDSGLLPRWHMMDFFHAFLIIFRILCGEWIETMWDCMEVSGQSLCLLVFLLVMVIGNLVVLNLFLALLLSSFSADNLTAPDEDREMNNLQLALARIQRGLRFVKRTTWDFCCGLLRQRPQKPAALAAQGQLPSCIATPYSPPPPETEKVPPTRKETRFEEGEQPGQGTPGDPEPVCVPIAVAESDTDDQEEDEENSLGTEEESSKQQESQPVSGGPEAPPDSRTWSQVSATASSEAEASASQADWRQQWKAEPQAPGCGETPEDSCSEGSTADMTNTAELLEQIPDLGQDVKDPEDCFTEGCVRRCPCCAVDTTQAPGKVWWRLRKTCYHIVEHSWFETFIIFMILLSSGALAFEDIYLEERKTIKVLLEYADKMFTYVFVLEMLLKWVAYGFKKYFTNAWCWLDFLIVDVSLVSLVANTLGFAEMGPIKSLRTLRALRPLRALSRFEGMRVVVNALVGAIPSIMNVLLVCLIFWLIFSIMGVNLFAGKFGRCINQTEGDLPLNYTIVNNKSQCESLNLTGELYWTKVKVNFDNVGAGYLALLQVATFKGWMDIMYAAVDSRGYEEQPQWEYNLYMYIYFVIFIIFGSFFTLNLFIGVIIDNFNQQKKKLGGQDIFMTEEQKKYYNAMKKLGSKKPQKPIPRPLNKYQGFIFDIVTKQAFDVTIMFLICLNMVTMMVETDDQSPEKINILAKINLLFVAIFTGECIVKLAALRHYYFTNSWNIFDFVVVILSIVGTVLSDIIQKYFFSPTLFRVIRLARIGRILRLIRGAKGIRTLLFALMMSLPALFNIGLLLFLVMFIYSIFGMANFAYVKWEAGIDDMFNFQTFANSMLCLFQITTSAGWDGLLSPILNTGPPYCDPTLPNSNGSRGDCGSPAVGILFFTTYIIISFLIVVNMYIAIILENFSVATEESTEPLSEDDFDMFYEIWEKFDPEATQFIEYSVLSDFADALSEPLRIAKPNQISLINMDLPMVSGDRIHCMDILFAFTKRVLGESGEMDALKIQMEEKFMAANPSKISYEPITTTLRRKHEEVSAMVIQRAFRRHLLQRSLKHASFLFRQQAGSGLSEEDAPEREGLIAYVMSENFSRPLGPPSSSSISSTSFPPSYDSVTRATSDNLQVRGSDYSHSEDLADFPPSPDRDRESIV

As usually defined, the IC50 is the concentration that inhibits the measured activity by half. A word on the GI50: it is the concentration giving 50% growth inhibition. For the compound `O=C1NC(=O)C(c2ccccc2)(c2ccccc2)N1` [DPH, Diphenylhydantoin, reference compound], the IC50 on hNav1.5 was above 100 µM; with neuronal VGSCs, 40 µM; at hNav1.7, above 100 µM. For the same compound, the GI50 in the assay with PC-3 cells [1] (read-out: GI50 in PC3 prostate cancer cells), in the assay on PC-3 cells [1] (read-out: PC3 GI50 (μg)) and with PC-3 cells [4] was above 100 µM throughout. The “% [3H]-BTX Displacement At 10 μM” value in assay [2] is 19.78 ± 1.21 (2) %. Moreover, in the assay on site 2 of the VGSC (40 μM, rat brain synaptoneurosomes, Table 9), the “% [3H]-BTX Inhibition (40 μM)” value was 30.4 ± 3.3%. In addition, the “% [3H]-BTX Displacement (40 μm)” value with site 2 of the VGSC (40 μm, rat brain synaptoneurosomes, Table 13) came to 27.7%. For the same compound, the “[3H]-BTX-B Binding Data, Displacement %” value in the assay on site 2 of the VGSC (Screen at 40 μM, 2 replicates, referenced to Aconitine) stood at 50%. For the same compound, the “less likely to be diagnosed with prostate cancer” value in assay [3] worked out at 40%.
